Laboratory results published in patent publication US10988477B2 (Merck Patent GmbH, priority 2018, dated 2021).

What was measured:
GCN2 kinase = GCN2 kinase (Homo sapiens, UniProt Q9P2K8); assay: GCN2 enzyme inhibition assay (Transcreener ADP2 fluorescence polarization); assay type: biochemical; conditions: compounds of Formula II; 280 μM ATP, 4 nM GCN2 kinase
Summary of the method: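 4 nM GCN2 + 200 μM (RS)7 + compound (0–8 μM), 10 min preinc.; start with ATP (280 μM final); 1 h, 25 °C; pH 7.5 Tris/NaCl/MgCl2/DTT; ADP FP readout; IC50, Ki(app) via tight-binding fit.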

[1] = target: intracellular GCN2 (phosphorylation of the GCN2 substrate eIF2α) (Homo sapiens, UniProt Q9P2K8); assay: GCN2 cellular inhibition assay (AlphaScreen SureFire P-eIF2α Ser51, borrelidin-treated U2OS cells); assay type: cell-based; conditions: compounds of Formula II; biomarker assay, phosphorylated eIF2α Ser51 in borrelidin-treated U2OS cells
Summary of the method: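 U2OS cells adhered overnight, then treated with compounds (4-fold serial dilutions from 40 μM final) plus borrelidin 10 μM final for 1 h at 37 °C. Lysate eIF2α Ser51 phosphorylation measured by AlphaScreen SureFire. Percent inhibition calculated relative to borrelidin-only wells.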

Chain of intracellular GCN2 (phosphorylation of the GCN2 substrate eIF2α) (Q9P2K8 whole entry): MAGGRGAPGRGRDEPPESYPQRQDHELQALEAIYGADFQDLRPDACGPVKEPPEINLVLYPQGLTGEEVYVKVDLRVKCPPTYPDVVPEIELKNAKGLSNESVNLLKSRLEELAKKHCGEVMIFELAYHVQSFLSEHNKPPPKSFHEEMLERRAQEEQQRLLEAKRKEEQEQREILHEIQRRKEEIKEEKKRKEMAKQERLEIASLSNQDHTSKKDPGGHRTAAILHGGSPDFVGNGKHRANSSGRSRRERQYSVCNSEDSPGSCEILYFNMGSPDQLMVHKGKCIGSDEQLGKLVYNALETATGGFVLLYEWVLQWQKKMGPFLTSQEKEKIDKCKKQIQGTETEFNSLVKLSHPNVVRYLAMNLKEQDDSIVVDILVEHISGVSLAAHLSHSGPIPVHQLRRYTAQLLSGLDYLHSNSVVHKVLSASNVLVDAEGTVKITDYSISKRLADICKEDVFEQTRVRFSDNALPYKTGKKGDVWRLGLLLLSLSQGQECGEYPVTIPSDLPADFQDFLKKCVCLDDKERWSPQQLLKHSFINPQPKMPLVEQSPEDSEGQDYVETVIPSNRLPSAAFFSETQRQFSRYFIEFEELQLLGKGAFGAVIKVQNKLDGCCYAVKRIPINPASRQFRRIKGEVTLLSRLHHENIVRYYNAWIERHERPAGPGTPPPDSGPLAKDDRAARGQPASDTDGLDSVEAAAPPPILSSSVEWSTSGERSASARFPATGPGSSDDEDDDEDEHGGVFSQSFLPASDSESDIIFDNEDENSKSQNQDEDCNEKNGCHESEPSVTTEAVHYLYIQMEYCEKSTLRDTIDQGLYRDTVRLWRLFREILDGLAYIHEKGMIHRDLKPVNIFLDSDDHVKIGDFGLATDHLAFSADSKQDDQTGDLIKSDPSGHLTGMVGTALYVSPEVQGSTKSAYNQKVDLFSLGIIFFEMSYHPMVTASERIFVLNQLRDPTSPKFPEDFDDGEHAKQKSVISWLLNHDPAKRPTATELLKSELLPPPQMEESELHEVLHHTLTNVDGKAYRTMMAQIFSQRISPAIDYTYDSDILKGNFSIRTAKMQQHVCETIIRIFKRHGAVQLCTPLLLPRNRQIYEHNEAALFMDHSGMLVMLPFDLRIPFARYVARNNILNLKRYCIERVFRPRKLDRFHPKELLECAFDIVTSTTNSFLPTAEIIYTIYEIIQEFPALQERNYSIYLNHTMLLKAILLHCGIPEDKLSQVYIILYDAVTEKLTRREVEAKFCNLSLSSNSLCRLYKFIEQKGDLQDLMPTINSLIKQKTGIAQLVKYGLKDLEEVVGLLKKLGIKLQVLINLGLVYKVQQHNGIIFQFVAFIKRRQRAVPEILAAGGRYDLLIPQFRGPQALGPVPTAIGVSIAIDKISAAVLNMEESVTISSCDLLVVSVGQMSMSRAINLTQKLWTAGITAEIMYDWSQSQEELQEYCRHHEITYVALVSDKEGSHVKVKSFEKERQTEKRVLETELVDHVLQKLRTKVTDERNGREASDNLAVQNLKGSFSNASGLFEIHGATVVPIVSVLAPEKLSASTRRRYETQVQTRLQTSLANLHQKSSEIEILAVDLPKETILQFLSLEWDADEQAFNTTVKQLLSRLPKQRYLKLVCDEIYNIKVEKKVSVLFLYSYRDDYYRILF
Chain of GCN2 kinase (Q9P2K8 whole entry): as above

| Structure (SMILES) | Ki (GCN2 kinase) [nM] | IC50 [1] [nM] |
| --- | --- | --- |
| CC1(CNS(C)(=O)=O)CCCN(c2cc(-c3cnc4ccc(C(F)F)nn34)ccn2)C1 (stereo not drawn) [II-115, N-((1-(4-(6-(Difluoromethyl)imidazo[1,2-b]pyridazin-3-yl)pyridin-2-yl)-3-methylpiperidin-3-yl)methyl)methanesulfonamide] | 10 to 1000 | 500 to 5000 |
| CNc1cc(-c2cnc3ccc(C(F)F)nn23)cc(N2CCCC(CNS(C)(=O)=O)C2)n1 (stereo not drawn) [II-116, N-((1-(4-(6-(Difluoromethyl)imidazo[1,2-b]pyridazin-3-yl)-6-(methylamino)pyridin-2-yl)piperidin-3-yl)methyl)methanesulfonamide] | < 10 | 500 to 5000 |
| CS(=O)(=O)NCC1CCCN(c2cc(-c3cnc4ccc(C(F)F)nn34)cnc2C#N)C1 (stereo not drawn) [II-117, N-((1-(2-Cyano-5-(6-(difluoromethyl)imidazo[1,2-b]pyridazin-3-yl)pyridin-3-yl)piperidin-3-yl)methyl)methanesulfonamide] | 10 to 1000 | 500 to 5000 |
| CC1CN(c2cc(-c3cnc4ccc(C(F)F)nn34)ccn2)CC(CNS(C)(=O)=O)O1 (stereo not drawn) [II-118, N-((4-(4-(6-(Difluoromethyl)imidazo[1,2-b]pyridazin-3-yl)pyridin-2-yl)-6-methylmorpholin-2-yl)methyl)methanesulfonamide] | 10 to 1000 | 500 to 5000 |
| CC1CN(c2cc(-c3cnc4ccc(C(F)F)nn34)ccn2)CC(CNS(C)(=O)=O)O1 (stereo not drawn) [II-119, N-((4-(4-(6-(Difluoromethyl)imidazo[1,2-b]pyridazin-3-yl)pyridin-2-yl)-6-methylmorpholin-2-yl)methyl)methanesulfonamide] | < 10 | < 500 |
| COc1cc(-c2cnc3ccc(C(F)F)nn23)cc(N2CCC[C@H](CNS(C)(=O)=O)C2)n1 [II-120, (S)—N-((1-(4-(6-(Difluoromethyl)imidazo[1,2-b]pyridazin-3-yl)-6-methoxypyridin-2-yl)piperidin-3-yl)methyl)methanesulfonamide] | < 10 | > 5000 |
| CS(=O)(=O)NC[C@@H]1CN(c2cc(-c3cnc4ccc(C(F)F)nn34)ccn2)CCO1 [II-121, N-[[(2S)-4-[4-[6-(Difluoromethyl)imidazo[1,2-b]pyridazin-3-yl]-2-pyridyl]morpholin-2-yl]methyl]methanesulfonamide] | < 10 | < 500 |
| CS(=O)(=O)NCC1CCCN(c2cc(-c3cnc4ccc(C(F)F)nn34)cc(F)n2)C1 (stereo not drawn) [II-122, N-((1-(4-(6-(Difluoromethyl)imidazo[1,2-b]pyridazin-3-yl)-6-fluoropyridin-2-yl)piperidin-3-yl)methyl)methanesulfonamide] | < 10 | 500 to 5000 |
| CS(=O)(=O)NCC1CCN(c2cc(-c3cnc4ccc(C(F)F)nn34)ccn2)C1 (stereo not drawn) [II-123, N-((1-(4-(6-(Difluoromethyl)imidazo[1,2-b]pyridazin-3-yl)pyridin-2-yl)pyrrolidin-3-yl)methyl)methanesulfonamide] | 10 to 1000 | 500 to 5000 |
| CS(=O)(=O)NOC1CCCN(c2cc(-c3cnc4ccc(C(F)F)nn34)ccn2)C1 (stereo not drawn) [II-124, N-((1-(4-(6-(Difluoromethyl)imidazo[1,2-b]pyridazin-3-yl)pyridin-2-yl)piperidin-3-yl)oxy)methanesulfonamide] | < 10 | 500 to 5000 |
| CS(=O)(=O)NCC1CCCN(c2ccnc(-c3cnc4ccc(C(F)F)nn34)c2)C1 (stereo not drawn) [II-125, N-((1-(2-(6-(Difluoromethyl)imidazo[1,2-b]pyridazin-3-yl)pyridin-4-yl)piperidin-3-yl)methyl)methanesulfonamide] | < 10 | < 500 |
| CS(=O)(=O)N1CC2(CN(c3cc(-c4cnc5ccc(C(F)F)nn45)ccn3)CCO2)C1 [II-126, 8-(4-(6-(Difluoromethyl)imidazo[1,2-b]pyridazin-3-yl)pyridin-2-yl)-2-(methylsulfonyl)-5-oxa-2,8-diazaspiro[3.5]nonane] | 10 to 1000 | > 5000 |
| CC(=O)N1CCN(c2ccnc(-c3cnc4ccc(C(F)F)nn34)c2)CC1 [II-127, 1-(4-(2-(6-(Difluoromethyl)imidazo[1,2-b]pyridazin-3-yl)pyridin-4-yl)piperazin-1-yl)ethanone] | 10 to 1000 | 500 to 5000 |
| CS(=O)(=O)CCC1CCCN(c2cc(-c3cnc4ccc(C(F)F)nn34)ccn2)C1 (stereo not drawn) [II-128, 6-(Difluoromethyl)-3-(2-(3-(2-(methylsulfonyl)ethyl)piperidin-1-yl)pyridin-4-yl)imidazo[1,2-b]pyridazine] | 10 to 1000 | 500 to 5000 |
| Cc1cc(-c2cnc3ccc(C(F)F)nn23)cc(N2CCCC(CNS(C)(=O)=O)C2)n1 (stereo not drawn) [II-129, N-((1-(4-(6-(Difluoromethyl)imidazo[1,2-b]pyridazin-3-yl)-6-methylpyridin-2-yl)piperidin-3-yl)methyl)methanesulfonamide] | < 10 | 500 to 5000 |
| CS(=O)(=O)NCC1CCCN(c2cc(-c3cnc4ccc(C(F)F)nn34)cc(C#N)n2)C1 (stereo not drawn) [II-130, N-((1-(6-Cyano-4-(6-(difluoromethyl)imidazo[1,2-b]pyridazin-3-yl)pyridin-2-yl)piperidin-3-yl)methyl)methanesulfonamide] | 10 to 1000 | > 5000 |
| CS(=O)(=O)N(O)CC1CN(c2cc(-c3cnc4ccc(C(F)F)nn34)ccn2)CCC1(F)F (stereo not drawn) [II-131, N-((1-(4-(6-(Difluoromethyl)imidazo[1,2-b]pyridazin-3-yl)pyridin-2-yl)-4,4-difluoropiperidin-3-yl)methyl)-N-hydroxymethanesulfonamide] | < 10 | < 500 |
| CC(NS(C)(=O)=O)C1CCCN(c2cc(-c3cnc4ccc(C(F)F)nn34)ccn2)C1 (stereo not drawn) [II-133, N-(1-(1-(4-(6-(Difluoromethyl)imidazo[1,2-b]pyridazin-3-yl)pyridin-2-yl)piperidin-3-yl)ethyl)methanesulfonamide] | < 10 | 500 to 5000 |
| CC(NS(C)(=O)=O)C1CCCN(c2cc(-c3cnc4ccc(C(F)F)nn34)ccn2)C1 (stereo not drawn) [II-134, N-(1-(1-(4-(6-(Difluoromethyl)imidazo[1,2-b]pyridazin-3-yl)pyridin-2-yl)piperidin-3-yl)ethyl)methanesulfonamide] | 10 to 1000 | 500 to 5000 |
| NC(=O)C1CN(c2cc(-c3cnc4ccc(C(F)F)nn34)ccn2)CCO1 (stereo not drawn) [II-135, 4-(4-(6-(Difluoromethyl)imidazo[1,2-b]pyridazin-3-yl)pyridin-2-yl)morpholine-2-carboxamide] | 10 to 1000 | 500 to 5000 |
| CS(=O)(=O)N1CC2(CCCN(c3cc(-c4cnc5ccc(C(F)F)nn45)ccn3)C2)C1 [II-136, 6-(Difluoromethyl)-3-(2-(2-(methylsulfonyl)-2,6-diazaspiro[3.5]nonan-6-yl)pyridin-4-yl)imidazo[1,2-b]pyridazine] | < 10 | < 500 |
| CS(=O)(=O)NCC1(O)CCN(c2cc(-c3cnc4ccc(C(F)F)nn34)ncn2)C1 (stereo not drawn) [II-137, N-((1-(6-(6-(Difluoromethyl)imidazo[1,2-b]pyridazin-3-yl)pyrimidin-4-yl)-3-hydroxypyrrolidin-3-yl)methyl)methanesulfonamide] | 10 to 1000 | > 5000 |
| CS(=N)(=O)CC1CCCN(c2cc(-c3cnc4ccc(C(F)F)nn34)ccn2)C1 (stereo not drawn) [II-138, ((1-(4-(6-(Difluoromethyl)imidazo[1,2-b]pyridazin-3-yl)pyridin-2-yl)piperidin-3-yl)methyl)(imino)(methyl)-λ^6-sulfanone] | 10 to 1000 | 500 to 5000 |
| CS(=O)(=O)NCC1(F)CCCN(c2cc(-c3cnc4ccc(C(F)F)nn34)ccn2)C1 (stereo not drawn) [II-139, N-((1-(4-(6-(Difluoromethyl)imidazo[1,2-b]pyridazin-3-yl)pyridin-2-yl)-3-fluoropiperidin-3-yl)methyl)methanesulfonamide] | 10 to 1000 | 500 to 5000 |
| CS(=O)(=O)NCC1CN(c2cc(-c3cnc4ccc(C(F)F)nn34)ncn2)CC1O (stereo not drawn) [II-140, N-((1-(6-(6-(Difluoromethyl)imidazo[1,2-b]pyridazin-3-yl)pyrimidin-4-yl)-4-hydroxypyrrolidin-3-yl)methyl)methanesulfonamide] | 10 to 1000 | > 5000 |
| CS(=O)(=O)NCC1CCCN(c2cc(-c3cnc4ccc(C(F)F)nn34)cc(O)n2)C1 (stereo not drawn) [II-141, N-((1-(4-(6-(difluoromethyl)imidazo[1,2-b]pyridazin-3-yl)-6-oxo-1,6-dihydropyridin-2-yl)piperidin-3-yl)methyl)methanesulfonamide] | < 10 | 500 to 5000 |
| COc1cc(-c2cnc3ccc(C(F)F)nn23)cc(N2CCCC(CNS(C)(=O)=O)C2)n1 (stereo not drawn) [II-142, N-((1-(4-(6-(Difluoromethyl)imidazo[1,2-b]pyridazin-3-yl)-6-methoxypyridin-2-yl)piperidin-3-yl)methyl)methanesulfonamide] | < 10 | 500 to 5000 |
| NC(=O)[C@H]1CCCN(c2cc(-c3cnc4ccc(C(F)F)nn34)ccn2)C1 [II-143, (S′)-1-(4-(6-(Difluoromethyl)imidazo[1,2-b]pyridazin-3-yl)pyridin-2-yl)piperidine-3-carboxamide] | < 10 | < 500 |
| NS(=O)(=O)CC1CCCN(c2cc(-c3cnc4ccc(C(F)F)nn34)ccn2)C1 (stereo not drawn) [II-144, (1-(4-(6-(Difluoromethyl)imidazo[1,2-b]pyridazin-3-yl)pyridin-2-yl)piperidin-3-yl)methanesulfonamide] | 10 to 1000 | 500 to 5000 |
| NC(=O)CC1CCCN(c2cc(-c3cnc4ccc(C(F)F)nn34)ccn2)C1 (stereo not drawn) [II-145, 2-(1-(4-(6-(Difluoromethyl)imidazo[1,2-b]pyridazin-3-yl)pyridin-2-yl)piperidin-3-yl)acetamide] | 10 to 1000 | 500 to 5000 |
